The test system of this data set is pine wood nematodes. Briefly: Toxicity assay against pine wood nematodes (immersion method). It counts as in vivo. The conditions noted are these: 24 h. On the procedure: 3. Activity assay of tenvermectins against pine wood nematodes: The indoor activities of sixteen-membered macrolide compounds such as tenvermectins, avermectins, ivermectin, milbemycins, emamectin benzoate were assayed, wherein pine wood nematodes were used as the test insects. The aim was to compare the difference in activities of such medicaments on pine wood nematodes.
Test medicaments: five kinds of medicaments, i.e. 0.5% avermectins emulsifiable concentrate, 0.5% tenvermectins emulsifiable concentrate, 0.5% ivermectin emulsifiable concentrate, 2% milbemycins emulsifiable concentrate, 2.5% emamectin benzoate microemulsion.
Test Method: The immersion method was adopted. Five mass concentrations 2, 5, 10, 20, 50 mg/L were set for each of the medicaments, and each concentration was repeated for three times. The experimental results were subjected to statistics after 24 h (see Table 5).

This note sets out measurements from patent US10334850B2, “Recombinant microorganism expressing avermectin analogue and use thereof” (Zhejiang Hisun Pharmaceutical Co., Ltd., priority 2014, dated 2019).

Take ivermectin: the “Mortality at different concentrations (mg/L, %)” value worked out at 18.52% (2 mg/L); 42.55% (5 mg/L); 57.47% (10 mg/L); 58.33% (20 mg/L); 78.94% (50 mg/L).

For emamectin benzoate, the “Mortality at different concentrations (mg/L, %)” value by setting is: (2 mg/L) 48.27%; (5 mg/L) 61.68%; (10 mg/L) 67.44%; (20 mg/L) 75%; (50 mg/L) 86.67%.
